# In ChEMBL document CHEMBL3046594, “Bioactive metabolites from an endophytic fungus of Aspergillus species isolated from seeds of Gloriosa superba Linn” (Med Chem Res, 2013):
# Activity calls are given as the source filed them. The rule behind the calls is not given here.
# Experiments:
# Candida albicans [1] = test: Antifungal activity against Candida albicans MTCC 3018 assessed as growth inhibition at 2 mg/mL after 48 hr by disk diffusion method; format: functional
# Salmonella typhi [2] = test: Antibacterial activity against Salmonella enterica subsp. enterica serovar Typhi MTCC 1251 assessed as growth inhibition at 2 mg/mL after 24 hr by disk diffusion method; format: functional, organism-based
# MCF7 [3] = test: Cytotoxicity against Homo sapiens (human) MCF7 cells assessed as growth inhibition at 10 to 100 uM after 48 hr by SRB assay; format: functional, cell-based
# Staphylococcus aureus [4] = test: Antibacterial activity against Staphylococcus aureus MTCC 96 assessed as growth inhibition at 2 mg/mL after 24 hr by disk diffusion method; format: functional
# Goffeauzyma gastrica [5] = test: Antifungal activity against Cryptococcus gastricus MTCC 1715 assessed as growth inhibition at 2 mg/mL after 48 hr by disk diffusion method; format: functional
# THP-1 [6] = test: Cytotoxicity against Homo sapiens (human) THP1 cells assessed as growth inhibition at 10 to 100 uM after 48 hr by SRB assay; format: functional, cell-based
# Escherichia coli [7] = test: Antibacterial activity against Escherichia coli MTCC 82 assessed as growth inhibition at 2 mg/mL after 24 hr by disk diffusion method; format: functional
# Pseudomonas aeruginosa [8] = test: Antibacterial activity against Pseudomonas aeruginosa MTCC 2642 assessed as growth inhibition at 2 mg/mL after 24 hr by disk diffusion method; format: functional
# Saccharomyces cerevisiae [9] = test: Antifungal activity against Saccharomyces cerevisiae MTCC 172 assessed as growth inhibition at 2 mg/mL after 48 hr by disk diffusion method; format: functional
# Bacillus subtilis [10] = test: Antibacterial activity against Bacillus subtilis MTCC 2451 assessed as growth inhibition at 2 mg/mL after 24 hr by disk diffusion method; format: functional
# Pseudomonas aeruginosa [11] = test: Antibacterial activity against Pseudomonas aeruginosa MTCC 2642 assessed as growth inhibition at 5 ug/disk after 24 hr by disk diffusion method; format: functional; conditions: MTCC 2642, 24 h, read-out: DIZ
# Bacillus subtilis [12] = test: Antibacterial activity against Bacillus subtilis MTCC 2451 assessed as growth inhibition at 5 ug/disk after 24 hr by disk diffusion method; format: functional; conditions: MTCC 2451, 24 h, read-out: DIZ
# Salmonella typhi [13] = test: Antibacterial activity against Salmonella enterica subsp. enterica serovar Typhi MTCC 1251 assessed as growth inhibition at 5 ug/disk after 24 hr by disk diffusion method; format: functional; conditions: MTCC 1251, 24 h, read-out: DIZ
# Staphylococcus aureus [14] = test: Antibacterial activity against Staphylococcus aureus MTCC 96 assessed as growth inhibition at 5 ug/disk after 24 hr by disk diffusion method; format: functional; conditions: MTCC 96, 24 h, read-out: DIZ
# Escherichia coli [15] = test: Antibacterial activity against Escherichia coli MTCC 82 assessed as growth inhibition at 5 ug/disk after 24 hr by disk diffusion method; format: functional; conditions: MTCC 82, 24 h, read-out: DIZ
# OVCAR-5 [16] = test: Cytotoxicity against Homo sapiens (human) OVCAR5 cells assessed as growth inhibition at 1 uM after 48 hr by SRB assay; format: functional; conditions: OVCAR-5, 48 h, read-out: GI
# MCF7 [17] = test: Cytotoxicity against Homo sapiens (human) MCF7 cells assessed as growth inhibition at 1 uM after 48 hr by SRB assay; format: functional; conditions: MCF7, 48 h, read-out: GI
# OVCAR-5 [18] = test: Cytotoxicity against Homo sapiens (human) OVCAR5 cells assessed as growth inhibition at 10 uM after 48 hr by SRB assay; format: functional; conditions: OVCAR-5, 48 h, read-out: GI
# THP-1 [19] = test: Cytotoxicity against Homo sapiens (human) THP1 cells assessed as growth inhibition at 100 uM after 48 hr by SRB assay; format: functional; conditions: THP-1, 48 h, read-out: GI
# THP-1 [20] = test: Cytotoxicity against Homo sapiens (human) THP1 cells assessed as growth inhibition after 48 hr by SRB assay; format: functional, cell-based; conditions: THP-1, 48 h
# CV-1 [21] = test: Cytotoxicity against Chlorocebus aethiops (African green monkey) CV1 cells assessed as growth inhibition at 100 uM after 48 hr by SRB assay; format: functional; conditions: CV-1, 48 h, read-out: GI
# MCF7 [22] = test: Cytotoxicity against Homo sapiens (human) MCF7 cells assessed as growth inhibition at 100 uM after 48 hr by SRB assay; format: functional; conditions: MCF7, 48 h, read-out: GI
# Staphylococcus aureus [23] = test: Antibacterial activity against Staphylococcus aureus MTCC 96 assessed as growth inhibition after 24 hr by broth dilution method; format: functional; conditions: MTCC 96, 24 h
# OVCAR-5 [24] = test: Cytotoxicity against Homo sapiens (human) OVCAR5 cells assessed as growth inhibition at 50 uM after 48 hr by SRB assay; format: functional; conditions: OVCAR-5, 48 h, read-out: GI
# OVCAR-5 [25] = test: Cytotoxicity against Homo sapiens (human) OVCAR5 cells assessed as growth inhibition at 30 uM after 48 hr by SRB assay; format: functional; conditions: OVCAR-5, 48 h, read-out: GI
# Candida albicans [26] = test: Antifungal activity against Candida albicans MTCC 3018 assessed as growth inhibition after 48 hr by broth dilution method; format: functional; conditions: MTCC 3018, 48 h
# MCF7 [27] = test: Cytotoxicity against Homo sapiens (human) MCF7 cells assessed as growth inhibition after 48 hr by SRB assay; format: functional, cell-based; conditions: MCF7, 48 h
# THP-1 [28] = test: Cytotoxicity against Homo sapiens (human) THP1 cells assessed as growth inhibition at 50 uM after 48 hr by SRB assay; format: functional; conditions: THP-1, 48 h, read-out: GI
# A549 = test: Cytotoxicity against Homo sapiens (human) A549 cells assessed as growth inhibition at 100 uM after 48 hr by SRB assay; format: functional; conditions: A549, 48 h, read-out: GI
# Pseudomonas aeruginosa [29] = test: Antibacterial activity against Pseudomonas aeruginosa MTCC 2642 assessed as growth inhibition after 24 hr by broth dilution method; format: functional; conditions: MTCC 2642, 24 h
# OVCAR-5 [30] = test: Cytotoxicity against Homo sapiens (human) OVCAR5 cells assessed as growth inhibition at 100 uM after 48 hr by SRB assay; format: functional; conditions: OVCAR-5, 48 h, read-out: GI
# Goffeauzyma gastrica [31] = test: Antifungal activity against Cryptococcus gastricus MTCC 1715 assessed as growth inhibition after 48 hr by broth dilution method; format: functional; conditions: MTCC 1715, 48 h
# Bacillus subtilis [32] = test: Antibacterial activity against Bacillus subtilis MTCC 2451 assessed as growth inhibition after 24 hr by broth dilution method; format: functional; conditions: MTCC 2451, 24 h
# Escherichia coli [33] = test: Antibacterial activity against Escherichia coli MTCC 82 assessed as growth inhibition after 24 hr by broth dilution method; format: functional; conditions: MTCC 82, 24 h
# THP-1 [34] = test: Cytotoxicity against Homo sapiens (human) THP1 cells assessed as growth inhibition at 30 uM after 48 hr by SRB assay; format: functional; conditions: THP-1, 48 h, read-out: GI
# CV-1 [35] = test: Cytotoxicity against Chlorocebus aethiops (African green monkey) CV1 cells assessed as growth inhibition at 50 uM after 48 hr by SRB assay; format: functional; conditions: CV-1, 48 h, read-out: GI
# Saccharomyces cerevisiae [36] = test: Antifungal activity against Saccharomyces cerevisiae MTCC 172 assessed as growth inhibition after 48 hr by broth dilution method; format: functional; conditions: MTCC 172, 48 h
# THP-1 [37] = test: Cytotoxicity against Homo sapiens (human) THP1 cells assessed as growth inhibition at 10 uM after 48 hr by SRB assay; format: functional; conditions: THP-1, 48 h, read-out: GI
# MCF7 [38] = test: Cytotoxicity against Homo sapiens (human) MCF7 cells assessed as growth inhibition at 10 uM after 48 hr by SRB assay; format: functional; conditions: MCF7, 48 h, read-out: GI
# MCF7 [39] = test: Cytotoxicity against Homo sapiens (human) MCF7 cells assessed as growth inhibition at 50 uM after 48 hr by SRB assay; format: functional; conditions: MCF7, 48 h, read-out: GI
# CV-1 [40] = test: Cytotoxicity against Chlorocebus aethiops (African green monkey) CV1 cells assessed as growth inhibition at 30 uM after 48 hr by SRB assay; format: functional; conditions: CV-1, 48 h, read-out: GI
# Salmonella typhi [41] = test: Antibacterial activity against Salmonella enterica subsp. enterica serovar Typhi MTCC 1251 assessed as growth inhibition after 24 hr by broth dilution method; format: functional, organism-based
# MCF7 [42] = test: Cytotoxicity against Homo sapiens (human) MCF7 cells assessed as growth inhibition at 30 uM after 48 hr by SRB assay; format: functional; conditions: MCF7, 48 h, read-out: GI
structure (smiles),measurement,setting,value
COC(=O)c1ccc(O)cc1C(=O)OC,growth inhibition (GI),Candida albicans [1],inactive
same,growth inhibition (GI),Salmonella typhi [2],inactive
same,growth inhibition (GI),MCF7 [3],Active
same,growth inhibition (GI),Staphylococcus aureus [4],inactive
same,growth inhibition (GI),Goffeauzyma gastrica [5],inactive
same,growth inhibition (GI),THP-1 [6],Active
same,growth inhibition (GI),Escherichia coli [7],inactive
same,growth inhibition (GI),Pseudomonas aeruginosa [8],inactive
same,growth inhibition (GI),Saccharomyces cerevisiae [9],inactive
same,growth inhibition (GI),Bacillus subtilis [10],inactive
CC1(C)S[C@@H]2[C@H](NC(=O)[C@H](N)c3ccc(O)cc3)C(=O)N2[C@H]1C(=O)O [AMOXICILLIN],zone of inhibition at 5 µg/disc,Pseudomonas aeruginosa [11],19 mm
same,zone of inhibition at 5 µg/disc,Bacillus subtilis [12],20 mm
same,zone of inhibition at 5 µg/disc,Salmonella typhi [13],18 mm
same,zone of inhibition at 5 µg/disc,Staphylococcus aureus [14],21 mm
same,zone of inhibition at 5 µg/disc,Escherichia coli [15],20 mm
CO[C@@]12[C@H](COC(N)=O)C3=C(C(=O)C(C)=C(N)C3=O)N1C[C@@H]1N[C@@H]12 [MITOMYCIN],inhibition of growth at 1 µM,OVCAR-5 [16],71%
same,inhibition of growth at 1 µM,MCF7 [17],82%
CC(=O)NC12C=CC(=O)C=CC1c1c(cc(O)c(O)c1O)CC2C (stereo unspecified),inhibition of growth at 10 µM,OVCAR-5 [18],9%
same,inhibition of growth at 100 µM,THP-1 [19],80%
same,IC50,THP-1 [20],30 µg/mL
same,inhibition of growth at 100 µM,CV-1 [21],35%
same,zone of inhibition at 2000 µg/mL,"Candida albicans [1]; MTCC 3018, 48 h, read-out: DIZ",18.9 mm
same,inhibition of growth at 100 µM,MCF7 [22],70%
same,MIC,Staphylococcus aureus [23],25 µg/mL
same,growth inhibition (GI),Salmonella typhi [2],inactive
same,inhibition of growth at 50 µM,OVCAR-5 [24],33%
same,inhibition of growth at 30 µM,OVCAR-5 [25],17%
same,MIC,Candida albicans [26],12.5 µg/mL
same,IC50,MCF7 [27],50 µg/mL
same,inhibition of growth at 50 µM,THP-1 [28],67%
same,inhibition of growth at 100 µM,A549,23%
same,MIC,Pseudomonas aeruginosa [29],> 100 µg/mL
same,inhibition of growth at 100 µM,OVCAR-5 [30],43%
same,MIC,Goffeauzyma gastrica [31],50 µg/mL
same,MIC,Bacillus subtilis [32],50 µg/mL
same,MIC,Escherichia coli [33],100 µg/mL
same,inhibition of growth at 30 µM,THP-1 [34],55%
same,inhibition of growth at 50 µM,CV-1 [35],19%
same,MIC,Saccharomyces cerevisiae [36],25 µg/mL
same,inhibition of growth at 10 µM,THP-1 [37],48%
same,inhibition of growth at 10 µM,MCF7 [38],26%
same,inhibition of growth at 50 µM,MCF7 [39],52%
same,zone of inhibition at 2000 µg/mL,"Staphylococcus aureus [4]; MTCC 96, 24 h, read-out: DIZ",15.7 mm
same,zone of inhibition at 2000 µg/mL,"Goffeauzyma gastrica [5]; MTCC 1715, 48 h, read-out: DIZ",15.3 mm
same,inhibition of growth at 30 µM,CV-1 [40],13%
same,MIC,Salmonella typhi [41],inactive
same,zone of inhibition at 2000 µg/mL,"Escherichia coli [7]; MTCC 82, 24 h, read-out: DIZ",13.3 mm
same,inhibition of growth at 30 µM,MCF7 [42],33%
same,zone of inhibition at 2000 µg/mL,"Pseudomonas aeruginosa [8]; MTCC 2642, 24 h, read-out: DIZ",11.9 mm
same,zone of inhibition at 2000 µg/mL,"Saccharomyces cerevisiae [9]; MTCC 172, 48 h, read-out: DIZ",16.9 mm
same,zone of inhibition at 2000 µg/mL,"Bacillus subtilis [10]; MTCC 2451, 24 h, read-out: DIZ",17.5 mm
